# Biological target: T1, Aspergillus niger beta-glucosidase (CAB75696.1, SEQ ID NO:2) improved variant yEdQ885-BG (Aspergillus niger, UniProt Q9P8F4, Y363C/Y375F/Y610F)
# T1 construct: strain yEdQ885, BG acid/base mutant #8
# T1 sequence (Q9P8F4 20-860 Y363C/Y375F/Y610F): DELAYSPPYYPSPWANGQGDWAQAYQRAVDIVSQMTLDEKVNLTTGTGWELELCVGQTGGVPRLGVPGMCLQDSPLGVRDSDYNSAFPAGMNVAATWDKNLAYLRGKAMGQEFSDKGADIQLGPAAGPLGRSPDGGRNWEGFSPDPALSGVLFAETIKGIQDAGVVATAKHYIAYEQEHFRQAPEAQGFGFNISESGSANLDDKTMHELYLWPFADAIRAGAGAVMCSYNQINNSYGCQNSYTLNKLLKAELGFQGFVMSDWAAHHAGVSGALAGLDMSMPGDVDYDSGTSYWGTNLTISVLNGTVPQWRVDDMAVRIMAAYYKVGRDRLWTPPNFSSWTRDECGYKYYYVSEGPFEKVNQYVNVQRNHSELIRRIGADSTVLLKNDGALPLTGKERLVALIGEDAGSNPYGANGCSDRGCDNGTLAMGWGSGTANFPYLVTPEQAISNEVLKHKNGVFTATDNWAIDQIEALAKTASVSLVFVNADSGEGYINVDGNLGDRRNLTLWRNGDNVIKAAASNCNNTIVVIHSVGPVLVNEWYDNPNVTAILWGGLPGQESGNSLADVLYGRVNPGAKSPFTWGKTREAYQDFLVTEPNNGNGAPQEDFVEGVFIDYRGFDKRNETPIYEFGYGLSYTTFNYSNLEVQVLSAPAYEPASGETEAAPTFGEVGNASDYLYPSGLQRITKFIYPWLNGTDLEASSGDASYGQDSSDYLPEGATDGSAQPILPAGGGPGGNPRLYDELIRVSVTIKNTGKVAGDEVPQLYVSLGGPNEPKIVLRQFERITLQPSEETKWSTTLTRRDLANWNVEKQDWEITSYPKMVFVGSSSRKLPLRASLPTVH
# Experiment: BG kinetics, cellobiose hydrolysis assay (HPLC) with glucose as competitive inhibitor, yEdQ885-BG
# Type: biochemical
# Source text: The beta-glucosidase (BG) gene from Aspergillus niger (Accession #CAB75696.1) was integrated into the TR3 yeast background at the T4U3 genomic site.
# High resolution enzyme assays and kinetic testing comparing the beta-glucosidases described herein and commercial enzyme preparations were pursued to more clearly quantify differences in mutant BG enzymes compared to the wild type BG enzyme. Based on data presented herein, BG mutant YEdQ885 was selected for further analysis and compared to the BG activity present in commercial preparations of SP188 (Novozymes) and Accellerase® BG (DuPont) as well as wild type BG.
# The kinetic properties of beta glucosidase are important for cellulosic hydrolysis, since in commercial situations a wide range of substrate concentrations and different product inhibition conditions will be encountered. In this example, a Michaelis-Menten kinetics model was used to describe BG kinetics. To determine these kinetic properties, BG activity assays using standard substrates pNPG and cellobiose were employed. yEdQ745-BG (wild type) and yEdQ885-BG (improved), were compared with two commercial BGs, A-BG (Accellerase®) BG from Dupont) and S-BG (Novozymes SP188 from Sigma). […]
structure (smiles),measurement,setting,value
OC[C@H]1OC(O)[C@H](O)[C@@H](O)[C@@H]1O (some centres unmarked) [glucose],Ki,,1.11 ± 0.19 mM
same,Km/Ki,"inhibitor influence, Km for cellobiose / Ki for glucose, pH 4.8, 50° C.",1.31
